Results from ChEMBL document CHEMBL4270670 (J Med Chem, 2018).
pEC50: −log10 of the molar value.

How the values were obtained:
in vitro [1] = conditions: chicken, chicken embryo fibroblasts
Influenza B virus = conditions: mdck
Influenza A virus [2] = experiment: microbe, parasite or virus in culture; conditions: MDCK, 48 h
Influenza A virus [3] = experiment: microbe, parasite or virus in culture; conditions: A/Puerto Rico/8/1934(H1N1), MDCK, 48 h
in vitro [4] = conditions: dog, MDCK cells
Rattus norvegicus [5] = experiment: Tmax in Sprague-Dawley rat at 20 mg/kg, po by LC-MS analysis; assay type: ADME, organism-based; conditions: in vivo
Rattus norvegicus [6] = experiment: Cmax in Sprague-Dawley rat at 20 mg/kg, po by LC-MS analysis; assay type: ADME, organism-based; design: dose 20 mg/kg, route oral; conditions: in vivo
[7] = MRT (0 to infinity) in Sprague-Dawley rat at 20 mg/kg, po by LC-MS analysis; assay type: ADME, organism-based; conditions: in vivo
in vivo = conditions: Sprague-Dawley, rat, po, 20 mg/kg
Rattus norvegicus [8] = organism: Rattus norvegicus; conditions: in vivo, po, 20 mg/kg
Rattus norvegicus [9] = experiment: Half life in Sprague-Dawley rat at 20 mg/kg, po by LC-MS analysis; assay type: ADME, organism-based; conditions: in vivo
[10] = Oral bioavailability in Sprague-Dawley rat at 20 mg/kg by LC-MS analysis; assay type: ADME, organism-based; conditions: in vivo

For `CCC(CC)O[C@@H]1C=C(C(=O)O)C[C@H](NCc2ccc(-c3ccc4sccc4c3)cc2)[C@H]1NC(C)=O`, the CC50 at 48 h (in vitro [1]) was > 200 µM.
With `CCC(CC)O[C@@H]1C=C(C(=O)O)C[C@H](NCc2ccc(Sc3cccs3)cc2)[C@H]1NC(C)=O` the CC50 at 48 h (in vitro [1]) was > 200 µM, the pEC50 (Influenza B virus) was 5.07 and the pEC50 (Influenza A virus [2]) was 4.10. The pEC50 (Influenza A virus [3]) was 7.40 and the CC50 at 48 h (in vitro [4]) was > 250 µM.
With `CCC(CC)O[C@@H]1C=C(C(=O)O)C[C@H](NCc2ccc(OC(C)C)cc2)[C@H]1NC(C)=O` the CC50 at 48 h (in vitro [1]) was > 200 µM.
With `CCC(CC)O[C@@H]1C=C(C(=O)O)C[C@H](NCc2cccc(-c3ccc(SC)cc3)c2)[C@H]1NC(C)=O` the CC50 at 48 h (in vitro [1]) was > 200 µM.
For `CCC(CC)O[C@@H]1C=C(C(=O)O)C[C@H](NCc2ccc(Cc3ccccc3)cc2)[C@H]1NC(C)=O`, the CC50 at 48 h (in vitro [1]) was > 200 µM.
With `CCOC(=O)C1=C[C@@H](OC(CC)CC)[C@H](NC(C)=O)[C@@H](NCc2ccc(Sc3ccccc3)cc2)C1` the Tmax (Rattus norvegicus [5]) was 34.2 min, the Cmax (Rattus norvegicus [6]) was 445.6 µg/mL and the MRT inf [7] was 17.1 h. For the same molecule, the AUC(0-t) (in vivo) was 1040 ng·h/mL, the AUC (Rattus norvegicus [8]) was 1594.62 µg·h/L and the t1/2 (Rattus norvegicus [9]) was 8.68 h. It also gave a bioavailability [10] of 7.1%.
With `CCC(CC)O[C@@H]1C=C(C(=O)O)C[C@H](NCc2cccc(SC(C)CC)c2)[C@H]1NC(C)=O` (stereo partly drawn) the CC50 at 48 h (in vitro [1]) was > 200 µM.
With `CCC(CC)O[C@@H]1C=C(C(=O)O)C[C@H](NCc2cccc(OC)c2)[C@H]1NC(C)=O` the CC50 at 48 h (in vitro [1]) was > 200 µM.
With `CCC(CC)O[C@@H]1C=C(C(=O)O)C[C@H](NCc2cccc(SC3CCCC3)c2)[C@H]1NC(C)=O` the CC50 at 48 h (in vitro [1]) was > 200 µM.
With `CCC(CC)O[C@@H]1C=C(C(=O)O)C[C@H](NCc2ccc(Oc3ccccc3)cc2)[C@H]1NC(C)=O` the CC50 at 48 h (in vitro [1]) was > 200 µM.
For `CCC(CC)O[C@@H]1C=C(C(=O)O)C[C@H](NCc2ccc(C(=O)c3ccccc3)cc2)[C@H]1NC(C)=O`, the CC50 at 48 h (in vitro [1]) was > 200 µM.
With `CCC(CC)O[C@@H]1C=C(C(=O)O)C[C@H](NCc2ccc(-c3cc4ccccc4s3)cc2)[C@H]1NC(C)=O` the CC50 at 48 h (in vitro [1]) was > 200 µM, the pEC50 (Influenza B virus) was < 4.00 and the pEC50 (Influenza A virus [2]) was < 4.00. The pEC50 (Influenza A virus [3]) was 5.14 and the CC50 at 48 h (in vitro [4]) was > 250 µM.
With `CCC(CC)Oc1ccc(CN[C@H]2CC(C(=O)O)=C[C@@H](OC(CC)CC)[C@@H]2NC(C)=O)cc1` the CC50 at 48 h (in vitro [1]) was > 200 µM, the pEC50 (Influenza B virus) was < 4.00 and the pEC50 (Influenza A virus [2]) was < 4.00. The pEC50 (Influenza A virus [3]) was 4.89 and the CC50 at 48 h (in vitro [4]) was > 250 µM.
For `CCc1ccc(CN[C@H]2CC(C(=O)O)=C[C@@H](OC(CC)CC)[C@@H]2NC(C)=O)cc1`, the CC50 at 48 h (in vitro [1]) was > 200 µM.
For `CCC(CC)O[C@@H]1C=C(C(=O)O)C[C@H](NCc2ccc(SC(C)CC)cc2)[C@H]1NC(C)=O` (stereo partly drawn), the CC50 at 48 h (in vitro [1]) was > 200 µM.
